The source of these data is US7932262B2 (Novartis AG, priority 2006, dated 2011).

Where only a bound is given, the exact number is not on record here.

Experiment [1] concerns the target T1, PDK1 kinase (Homo sapiens, UniProt O15530).
T1 sequence (O15530 1-556): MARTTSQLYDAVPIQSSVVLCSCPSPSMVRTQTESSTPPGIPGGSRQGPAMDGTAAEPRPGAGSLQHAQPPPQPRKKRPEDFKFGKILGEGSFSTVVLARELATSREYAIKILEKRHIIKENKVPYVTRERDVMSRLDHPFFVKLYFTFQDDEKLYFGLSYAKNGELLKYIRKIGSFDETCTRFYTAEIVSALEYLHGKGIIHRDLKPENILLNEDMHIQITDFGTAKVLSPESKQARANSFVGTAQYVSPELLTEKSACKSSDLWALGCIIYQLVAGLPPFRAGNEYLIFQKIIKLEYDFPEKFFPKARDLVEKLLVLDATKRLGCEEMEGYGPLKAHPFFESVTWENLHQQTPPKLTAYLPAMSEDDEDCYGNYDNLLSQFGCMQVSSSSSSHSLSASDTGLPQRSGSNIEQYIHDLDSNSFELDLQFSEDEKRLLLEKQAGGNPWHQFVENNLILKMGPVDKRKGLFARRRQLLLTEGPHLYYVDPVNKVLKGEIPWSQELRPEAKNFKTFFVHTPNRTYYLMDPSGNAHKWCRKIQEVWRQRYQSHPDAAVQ
In words: PDK1 Kinase Alpha Screen Assay. To be noted: read-out: PDK1 IC50. In kind it is biochemical. The essentials: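 Compound in DMSO added to PDK1-4 peptide; PDK1/ATP mix starts reaction (final 50 nM peptide, 10 uM ATP). Runs 3-18 hours, stopped with 90 mM EDTA buffer. Antibody/bead mix added, developed overnight at room temperature, then AlphaScreen signal read.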

The test system of experiment [2] is A2780 cells. In words: Cell Proliferation Assay (Cell Titer Glo), A2780. In kind it is cell-based. The note with it: Homo sapiens, 72 h; A2780 cells, 3 days incubation; read-out: CPEC50 A2780. The essentials:
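Cells seeded at 1000/well, allowed to adhere 3-5 h, then exposed to DMSO-dissolved compounds for 3 days at 37° C., 5% CO2. Medium replaced before Cell Titer Glo addition; luminescence read after 10 min.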

Consider `NS(=O)(=O)c1ccc(Nc2ncc3cccc(-c4ccccc4)c3n2)cc1` [Compound 110, 4-(8-Phenyl-quinazolin-2-ylamino)-benzenesulfonamide], for which the IC50 in experiment [1] was less than 5 µM. The EC50 in experiment [2] is less than 5 µM.
For `NC(=O)c1ccc(-c2ccc3cnc(Nc4ccc(S(N)(=O)=O)cc4)nc3c2)cc1F` [Compound 112, 2-Fluoro-4-[2-(4-sulfamoyl-phenylamino)-quinazolin-7-yl]-benzamide], in experiment [1], the IC50 was less than 5 µM. Further, the EC50 in experiment [2] was in the range of 5 to 10 µM.
For `NS(=O)(=O)c1ccc(Nc2ncc3cccc(C(=O)N4CCCC4)c3n2)cc1` [Compound 113, 4-[8-(Pyrrolidine-1-carbonyl)-quinazolin-2 ylamino]-benzenesulfonamide], in that order: less than 5 µM and 5 to 10 µM.
For `COCCNC(=O)c1cccc2cnc(Nc3ccc(S(N)(=O)=O)cc3)nc12` [Compound 114, 2-(4-Sulfamoyl-phenylamino)-quinazoline-8-carboxylic acid (2-methoxy-ethyl)-amide], in that order: 5 to 10 µM and less than 5 µM.
For `NS(=O)(=O)c1ccc(Nc2ncc3cccc(C(=O)NCCN4CCCC4)c3n2)cc1` [Compound 115, 2-(4-Sulfamoyl-phenylamino)-quinazoline-8-carboxylic acid (2-pyrrolidin-1-yl-ethyl)-amide], in that order: 5 to 10 µM and less than 5 µM.
As to `COCCN1CCN(C(=O)c2ccc3cnc(Nc4ccc(S(N)(=O)=O)cc4)nc3c2)CC1` [Compound 116, 4-{7-[4-(2-Methoxy-ethyl)-piperazine-1-carbonyl]-quinazolin-2-ylamino}-benzenesulfonamide], the IC50 in experiment [1] is 10 to 25 µM. Further, in experiment [2], the EC50 is 5 to 10 µM.
For `COc1cc(-c2cccc3cnc(Nc4ccc(S(N)(=O)=O)cc4)nc23)c(Cl)cn1` [Compound 117, 4-[8-(5-Chloro-2-methoxy-pyridin-4-yl)-quinazolin-2-ylamino]-benzenesulfonamide], the IC50 in experiment [1] is less than 5 µM. In experiment [2], the EC50 is less than 5 µM.
In the case of `CC(C)N1CCN(C(=O)c2ccc3cnc(Nc4ccc(S(N)(=O)=O)cc4)nc3c2)CC1` [Compound 118, 4-[7-(4-Isopropyl-piperazine-1-carbonyl)-quinazolin-2-ylamino]-benzenesulfonamide], the IC50 in experiment [1] is 10 to 25 µM. In experiment [2], the EC50 lay within 5 to 10 µM.
For `CN1CCC(NC(=O)c2ccc3cnc(Nc4ccc(S(N)(=O)=O)cc4)nc3c2)CC1` [Compound 119, 2-(4-Sulfamoyl-phenylamino)-quinazoline-7-carboxylic acid (1-methyl-piperidin-4-yl)-amide] the same measures were less than 5 µM and 5 to 10 µM.
For `NS(=O)(=O)c1ccc(Nc2ncc3cccc(C(=O)N4CCOCC4)c3n2)cc1` [Compound 120, 4-[8-(Morpholine-4-carbonyl)-quinazolin-2-ylamino]-benzenesulfonamide], in that order: 5 to 10 µM and 5 to 10 µM.
`CN1CCN(C(=O)c2cccc3cnc(Nc4ccc(S(N)(=O)=O)cc4)nc23)CC1` [Compound 121, 4-[8-(4-Methyl-piperazine-1-carbonyl)-quinazolin-2-ylamino]-benzenesulfonamide]: the IC50 in experiment [1] is less than 5 µM. Further, in experiment [2], the EC50 is 5 to 10 µM.
For `NS(=O)(=O)c1ccc(Nc2ncc3cccc(C(=O)N4CCS(=O)(=O)CC4)c3n2)cc1` [Compound 122, 4-[8-(1,1-Dioxo-1lambda*6*- thiomorpholine-4-carbonyl)-quinazolin-2-ylamino]-benzenesulfonamide], in that order: 10 to 25 µM and 5 to 10 µM.
For `NC(=O)c1cccc(-c2ccc3cnc(Nc4ccc(S(N)(=O)=O)cc4)nc3c2)c1` [Compound 123, 3-[2-(4-Sulfamoyl-phenylamino)-quinazolin-7-yl]-benzamide], in that order: less than 5 µM and 5 to 10 µM.
`NC(=O)c1ccc(-c2ccc3cnc(Nc4ccc(S(N)(=O)=O)cc4)nc3c2)cc1` [Compound 124, 4-[2-(4-Sulfamoyl-phenylamino)-quinazolin-7-yl]-benzamide]: the concentration for half-maximal inhibition (IC50) in experiment [1] was less than 5 µM. The EC50 in experiment [2] was in the range of 5 to 10 µM.
